From ChEMBL document CHEMBL1136950, “Thiopyrophosphoantigens: solid-phase synthesis and in vitro characterization of a new class of Vgamma9 Vdelta2 T cells activators” (J Med Chem, 2009)
Active and inactive are the calls of the source. The calls are words filed in the database; no cut-off is given here.

Key:
T-cell [1] = assay: Immunostimulatory activity in human Vgamma9/Vdelta2 T cells assessed as TNFalpha production after 12 hrs by ELISA; type: functional, cell-based
[2] = Stability in presence alkaline phosphatase after 20 mins by HPLC-MS analysis
[3] = Stability in presence of alkaline phosphatase; conditions: isolated protein
[4] = Stability in presence alkaline phosphatase after 30 mins by HPLC-MS analysis
[5] = Stability in presence alkaline phosphatase after 60 mins by HPLC-MS analysis
T-cell [6] = assay: Immunostimulatory activity in human Vgamma9/Vdelta2 T cells assessed as expansion induces at 20 uM; type: functional, cell-based

Row | SMILES | EC50 (T-cell [1]) | other results
1 | O=P(O)(O)OP(=O)(O)SCCOCCCl | 0.39 µM | –
2 | N#CCCCCSP(=O)(O)OP(=O)(O)O | 1 µM | –
3 | O=P(O)(O)OP(=O)(O)SCCOC1CCCCO1 (stereo not drawn) | 12 µM | –
4 | O=P(O)(O)OP(=O)(O)SCc1ccccc1 | 55 µM | –
5 | O=P(O)(O)OP(=O)(O)SCCCCCl | 100 µM | –
6 | C=CCCCCCSP(=O)(O)OP(=O)(O)O | 6.3 µM | –
7 | CCSCCCSP(=O)(O)OP(=O)(O)O | 0.055 µM | –
8 | CC(O)CCSP(=O)(O)OP(=O)(O)O (stereo not drawn) | 75 µM | –
9 | C=C(C)CCSP(=O)([O-])OP(=O)([O-])[O-].[Na+].[Na+].[Na+] | 3.75 µM | remaining at 20 min [2]: 48%; Stability [3]: 94%; remaining at 0.5 h [4]: 54%; remaining at 1 h [5]: 27%
10 | O=P(O)(O)OP(=O)(O)SCCCCF | 10.8 µM | –
11 | CC1(CCSP(=O)(O)OP(=O)(O)O)COC1 | 14 µM | –
12 | C/C(=C\CSP(=O)(O)OP(=O)(O)O)CO | 0.0048 µM | Activity (T-cell [6]): Active
13 | O=P(O)(O)OP(=O)(O)SCCC1OCCO1 | 0.056 µM | –
